{"source": "patent US12599548B2", "about": "“Method of treating oxidative stress in skin and compositions therefor” (The Procter & Gamble Company, priority 2020, dated 2026)", "system": "Keratinocytes (H-tert-keratinocytes) subjected to oxidative stress", "assay": "Oxidative Stress Test (cellular ATP level, ATP Glo luminescence)", "type": "cell-based, human", "conditions": "90 minutes", "procedure": "This test method provides a suitable way to determine the ability of a test agent to improve cellular ATP production in cells subjected to oxidative stress.\nKeratinocytes (e.g., H-tert-keratinocytes from University of Texas Southwestern) are cultured in T150 flasks in EpiLife Medium (e.g., catalogue #MEPICFPRF500 from Thermo Fisher Scientific) supplemented with human keratinocyte growth supplement (e.g., catalogue #S-001-5 from Thermo Fisher Scientific) and 1% penicillin/streptomycin (e.g., catalogue #15140-122 from Thermo Fisher Scientific). When the keratinocytes reach ˜70% confluency, they are plated out into 96 well plates (white, clear bottom with 20,000 cells/well). Incubate the plates for 24 hours before the experimental stress and treatment are applied.\nThe 96 well plate is divided into three groups of samples (wells) as follows: (i) no stress and no treatment is applied, (ii) stress is applied but no treatment and (iii) stress and treatment are both applied. In combination experiments, stress plus 2 treatments may be applied. For the no stress/no treatment samples (i.e., group (i) above), the culture medium is simply refreshed. For the stressed samples (i.e., group (ii) and (iii) above), culture medium containing 400 μM hydrogen peroxide (HOOH) is used to replace the medium. For the treatment samples (i.e., group (iii) above), immediately after adding the HOOH, pipette the treatment(s) into the wells from a 100× master stock. Return the plates to the CO2 incubator for 90 minutes before measuring ATP.\nATP is measured by removing the media from the samples and replacing it with ATP Glo® reagent (available from Promega, Madison, WI), or equivalent, per manufacturer's instructions. After 10 minutes of exposure at room temperature, the luminescence of each sample can be measured using a Perkin Elmer ENVISION brand plate reader or equivalent. Luminescent counts are directly proportional to ATP level in the cells. Record the luminescent counts for each sample.\nReplicates of each treatment group are averaged together, and standard p-value calculations are used (2-sided, equal variance) to calculate significance. In cases where 2 treatments appear to synergistically enhance ATP levels, the results of the combined treatments can be compared to the sum of the individual treatments to determine a synergy factor. The synergy factor is calculated as the ratio of the observed effect from the combined treatments divided by the sum of the results from each individual treatment.\nThe test agents used in the Oxidative Stress Test are limited to relatively low concentrations due to cell toxicity. That is, applying high concentrations of the test agent directly to “unprotected” keratinocytes may kill some of all of the cells, which would obviously skew the test results. […]"}
{"compound": "CCCCCCCCC(CO)CCCCCC", "note": "(stereo not shown) [Fatty Alcohol, hexyldecanol]", "values": [{"measurement": "Measured ATP level", "setting": "Fatty Alcohol 0.2 ppm, 400 μM hydrogen peroxide", "value": 368.3}, {"measurement": "Measured ATP level", "setting": "Fatty Alcohol 1 ppm, keratinocytes stressed with 400 μM hydrogen peroxide, luminescent counts", "value": 534.3}, {"measurement": "Measured ATP level", "setting": "Fatty Alcohol 5 ppm, 400 μM hydrogen peroxide", "value": 708.0}, {"measurement": "Measured ATP level", "setting": "Fatty Alcohol 50 ppm, 400 μM hydrogen peroxide", "value": 962.3}]}
